Reference: PMC3565289, “A Molecular-Modeling Toolbox Aimed at Bridging the Gap between Medicinal Chemistry and Computational Sciences” (International Journal of Molecular Sciences, 2013)

Tests used:
FimH [1] = molecular target: T1, FimH (Escherichia coli, UniProt P08191); assay: VirtualDesignLab mQSAR (Quasar) affinity prediction; conditions: Quasar mQSAR model
T1 construct: made in house
Description: In order to provide a reliable in silico affinity estimate for a given system, it is necessary to account for protein-ligand interactions, solvation and entropic phenomena. In our example system, FimH adhesin, we utilized a set of 108 compounds, along with their experimental affinity data, to develop and validate a corresponding mQSAR model (Table 1). When generating the model, the initial compound structures were constructed using the integrated model-building tool and then optimized with MacroModel. Atomic partial charges were computed using the AMSOL package. All structures were subjected to the conformational-searching algorithm ConfGen, resulting in sets of low-energy conformations for each molecule in aqueous solution. Energetically feasible binding conformations (within 10 kcal/mol from the lowest-energy structure) were identified by means of automated docking to two three-dimensional structures (“in” and “out” state, cf. below) of the FimH carbohydrate-binding domain. The employed alignment (Alignator) and docking (Cheetah) protocols allowed for flexibility of both ligand and the protein (induced fit), as well as dynamic solvation. Several templates (based on experimental structures) were used for the pre-alignment in order to account for distinct modes of binding to FimH (referred to as “in” and “out”) reported previously. The underlying protein structures were retrieved from the Protein Data Bank (PDB codes 1UWF and 3MCY available at 1.69 Å and 2.90 Å resolution, respectively) and pre-processed (calculation of hydrogen-atom positions, hydrogen-bond network optimization, energy minimization) with the Protein Preparation Wizard in Maestro [34]. A total of 282 docking poses (allowing for multiple poses per ligand) comprising a 4D data set were then used as input (84 training and 24 test substances) for the mQSAR software Quasar to generate a series of quasi-atomistic binding-site models. The underlying model families (comprising 200 members) were evaluated in consensus-scoring mode—along with a direct force-field scoring in Cheetah and the comparison of a molecule’s interaction energy in a box of pre-equilibrated water and in the binding site. For validation, we additionally employed an alternative receptor-modeling concept, Raptor [28], featuring a substantially different scoring function.
Every compound submitted to the VirtualDesignLab server (by means of imported PDB files or the integrated model builder) is subjected to identical protocols as those employed to train and validate the underlying mQSAR model(s) (Figure 2). The affinity is calculated based on multiple components of the binding energy (Figure 3). Protein–ligand interaction and internal strain energies (Cheetah and Quasar) are obtained using a directional force field with polarization terms. The desolvation costs are calculated for the global minimum obtained from the conformational search, using a continuum solvation model. Loss of entropy is approximated from the number of rotatable bonds constrained upon binding to the protein. Induced-fit energy calculation is an inherent function of the Quasar algorithm. The affinity predictions are based on (up to) eight docking poses as obtained from Alignator/Cheetah (4D) and take into account (up to) six induced-fit mechanisms (5D) and two solvation (6D) scenarios in order to account for the unique properties of certain binding sites (e.g., the surface-exposed FimH binding pocket). Protein–ligand structures may be viewed (binding pocket) and/or downloaded (in PDB format) upon job completion. The latter files also serve as input for other software, including the MD Client.
The current FimH Quasar model for the VirtualDesignLab was established based on structural and biological data of 108 mannose-based inhibitors (with IC50 values ranging from 220 μM to 2.4 nM) displaying diverse PK/PD profiles. […]

FimH [2] = molecular target: T1, FimH; assay: competitive binding assay, experimental affinity for FimH

T1 sequence (P08191 22-179): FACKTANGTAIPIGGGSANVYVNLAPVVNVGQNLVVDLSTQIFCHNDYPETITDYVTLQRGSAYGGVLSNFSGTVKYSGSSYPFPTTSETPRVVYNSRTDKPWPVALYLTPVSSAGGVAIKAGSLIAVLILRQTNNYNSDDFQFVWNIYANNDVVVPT

Structure (SMILES)	Residual (predicted minus experimental pIC50) (FimH [1])	IC50 (FimH [2]) [nM]	Exp. affinity (pIC50: negative logarithm of IC50 [M]) (FimH [2]; experimental binding affinity, in-house assay)
COc1ccc(Cn2cc(CO[C@H]3O[C@H](CO)[C@@H](O)[C@H](O)[C@@H]3O)nn2)cc1 [compound 23]	0.8	501	–
COc1cccc(Cn2cc(CO[C@H]3O[C@H](CO)[C@@H](O)[C@H](O)[C@@H]3O)nn2)c1 [compound 24]	0.7	501	–
COc1ccc(-n2cc(CO[C@H]3O[C@H](CO)[C@@H](O)[C@H](O)[C@@H]3O)nn2)cc1 [compound 25]	0.6	158	–
OC[C@H]1O[C@H](OCc2cn(-c3cccc(F)c3)nn2)[C@@H](O)[C@@H](O)[C@@H]1O [compound 26]	0.2	316	–
OC[C@H]1O[C@H](OCc2cn(-c3ccncc3)nn2)[C@@H](O)[C@@H](O)[C@@H]1O [compound 27]	−0.4	63.1	–
O=[N+]([O-])c1ccc2c(c1)CCN2c1ccc(O[C@H]2O[C@H](CO)[C@@H](O)[C@H](O)[C@@H]2O)c(Cl)c1 [compound 28]	−0.6	–	–
OC[C@H]1O[C@H](OCc2cn(-c3ccc(F)cc3)nn2)[C@@H](O)[C@@H](O)[C@@H]1O [compound 29]	0.7	794	–
COc1cccc(Cn2cc(CCO[C@H]3O[C@H](CO)[C@@H](O)[C@H](O)[C@@H]3O)nn2)c1 [compound 30]	0.7	251	–
OC[C@H]1O[C@H](OCCc2cn(-c3ccncc3)nn2)[C@@H](O)[C@@H](O)[C@@H]1O [compound 31]	0	158	–
O=[N+]([O-])c1ccc(-n2cc(CCO[C@H]3O[C@H](CO)[C@@H](O)[C@H](O)[C@@H]3O)nn2)cc1 [compound 32]	0.2	100	–
OC[C@H]1O[C@H](OCCc2cn(-c3ccc(F)cc3)nn2)[C@@H](O)[C@@H](O)[C@@H]1O [compound 33]	0.2	200	–
O=C(O)c1cncc(-n2cc(CO[C@H]3O[C@H](CO)[C@@H](O)[C@H](O)[C@@H]3O)nn2)c1 [compound 34]	0	158	–
OC[C@H]1O[C@H](Cn2cc(-c3ccc(C(F)(F)F)cc3)nn2)[C@@H](O)[C@@H](O)[C@@H]1O [compound 35]	0	200	–
OC[C@H]1O[C@H](Cn2cc(COc3ccccc3)nn2)[C@@H](O)[C@@H](O)[C@@H]1O [compound 36]	−0.2	316	–
OC[C@H]1O[C@H](n2cc(-c3ccccc3)nn2)[C@@H](O)[C@@H](O)[C@@H]1O [compound 37]	0.2	–	6.6
Cc1ccc(-c2cn([C@H]3O[C@H](CO)[C@@H](O)[C@H](O)[C@@H]3O)nn2)cc1 [compound 38]	0	251	–
OC[C@H]1O[C@H](n2cc(-c3ccc(C(F)(F)F)cc3)nn2)[C@@H](O)[C@@H](O)[C@@H]1O [compound 39]	0.5	158	–
OC[C@H]1O[C@H](n2cc(-c3cccnc3)nn2)[C@@H](O)[C@@H](O)[C@@H]1O [compound 40]	−0.2	200	–
OC[C@H]1O[C@H](n2cc(COc3ccccc3)nn2)[C@@H](O)[C@@H](O)[C@@H]1O [compound 41]	0.2	501	–
CCOc1c(Nc2ccc(O[C@H]3O[C@H](CO)[C@@H](O)[C@H](O)[C@@H]3O)c(Cl)c2)c(=O)c1=O [compound 42]	−0.3	10	–
O=C(O)c1ccc(-c2ccc(O[C@H]3O[C@H](CO)[C@@H](O)[C@H](O)[C@@H]3O)c(Cl)c2)cc1 [compound 43]	−0.7	–	–
